Reference: ChEMBL document CHEMBL5584355, “Harnessing Nitric Oxide-Donating Benzofuroxans for Targeted Inhibition of Carbonic Anhydrase IX in Cancer” (J Med Chem, 2024)

Experiments:
[1] = target: Carbonic anhydrase 2 (Homo sapiens, UniProt P00918); test: Inhibition of human recombinant CA2 by phenol red dye based stopped flow CO2 hydration assay
[2] = target: Carbonic anhydrase 9 (Homo sapiens, UniProt Q16790); test: Inhibition of human recombinant CA9 by phenol red dye based stopped flow CO2 hydration assay
[3] = target: Carbonic anhydrase 12 (Homo sapiens, UniProt O43570); test: Inhibition of human recombinant CA12 by phenol red dye based stopped flow CO2 hydration assay
[4] = target: Carbonic anhydrase 1 (Homo sapiens, UniProt P00915); test: Inhibition of human recombinant CA1 by phenol red dye based stopped flow CO2 hydration assay
[5] = Toxicity in female C57BL6/J mouse assessed as hematic pH at 10 mg/kg, ip administered daily for 2 weeks and measured 1 hr post last dose (reference value: 7.1); type: organism-based; conditions: in vivo, 336 h
[6] = test system: HEK293; test: Cytotoxicity against HEK293 cells assessed as inhibition of cell growth at 46 uM by celltiter-glo assay; type: toxicity, cell-based; conditions: human, hek293, 46 µM
[7] = test system: HEK293; test: Cytotoxicity against HEK293 cells assessed as inhibition of cell growth at 77 uM by celltiter-glo assay; type: toxicity, cell-based; conditions: human, hek293, 77 µM

Sequence of Carbonic anhydrase 1 (P00915 whole entry): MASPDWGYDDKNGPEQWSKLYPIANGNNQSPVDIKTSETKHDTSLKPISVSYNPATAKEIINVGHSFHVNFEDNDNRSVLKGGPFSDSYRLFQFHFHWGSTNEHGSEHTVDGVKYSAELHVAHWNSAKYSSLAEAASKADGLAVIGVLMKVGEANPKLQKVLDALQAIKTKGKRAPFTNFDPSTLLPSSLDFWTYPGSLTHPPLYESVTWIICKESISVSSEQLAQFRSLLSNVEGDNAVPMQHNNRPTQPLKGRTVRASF
Sequence of Carbonic anhydrase 12 (O43570 whole entry): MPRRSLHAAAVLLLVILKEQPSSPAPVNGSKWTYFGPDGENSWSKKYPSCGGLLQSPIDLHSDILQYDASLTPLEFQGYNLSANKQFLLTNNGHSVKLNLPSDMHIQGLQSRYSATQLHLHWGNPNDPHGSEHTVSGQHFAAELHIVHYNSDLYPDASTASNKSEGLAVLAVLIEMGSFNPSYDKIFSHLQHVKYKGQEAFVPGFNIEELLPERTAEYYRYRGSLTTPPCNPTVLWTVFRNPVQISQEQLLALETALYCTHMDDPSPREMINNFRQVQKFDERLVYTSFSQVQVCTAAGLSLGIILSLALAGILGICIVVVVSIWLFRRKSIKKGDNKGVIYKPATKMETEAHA

SMILES | Ki [2] [nM] | Ki [4] [nM] | other results
O=C(O)c1ccc2c(c1)no[n+]2[O-] | 2650 | > 10000 | Ki [1]: 8730 nM; Ki [3]: 995 nM
O=C(OCCCOc1ccc2oc(=O)ccc2c1)c1ccc2c(c1)no[n+]2[O-] | 48.5 | – | –
O=C(OCCOc1ccc2ccc(=O)oc2c1)c1ccc2c(c1)no[n+]2[O-] | 112 | > 10000 | –
NS(=O)(=O)c1ccc(CNC(=O)c2ccc3c(c2)no[n+]3[O-])cc1 | 37.9 | 83.1 | –
N#CCCN(CCc1ccc(S(N)(=O)=O)cc1)C(=O)c1ccc2c(c1)no[n+]2[O-] | 20.3 | – | –
NS(=O)(=O)c1ccc(CCN(Cc2ccccc2)C(=O)c2ccc3c(c2)no[n+]3[O-])cc1 | 10.4 | 618 | pH [5]: 6.9; Activity [6]: Non-Toxic
NS(=O)(=O)c1ccc(OC(=O)c2ccc3c(c2)no[n+]3[O-])cc1 | 38.7 | 736 | –
NS(=O)(=O)c1cccc(NC(=O)c2ccc3c(c2)no[n+]3[O-])c1 | 41.5 | 7660 | –
NS(=O)(=O)c1ccc(O)c(NC(=O)c2ccc3c(c2)no[n+]3[O-])c1 | 61.1 | 8450 | –
NS(=O)(=O)c1ccc(CCNC(=O)c2ccc3c(c2)no[n+]3[O-])cc1 | 12.6 | 445 | Ki [1]: 90.1 nM; Ki [3]: 26.1 nM
NS(=O)(=O)c1ccc(CCN(Cc2ccco2)C(=O)c2ccc3c(c2)no[n+]3[O-])cc1 | 23.1 | 602 | –
O=C(Oc1ccc2ccc(=O)oc2c1)c1ccc2c(c1)no[n+]2[O-] | 304 | – | –
O=C(OCCCOc1ccc2ccc(=O)oc2c1)c1ccc2c(c1)no[n+]2[O-] | – | > 10000 | –
NS(=O)(=O)c1ccc(NC(=O)c2ccc3c(c2)no[n+]3[O-])cc1 | 69.7 | 792 | –
O=C(NCCOc1ccc2oc(=O)ccc2c1)c1ccc2c(c1)no[n+]2[O-] | 23.6 | – | –
O=C(NCCOc1ccc2ccc(=O)oc2c1)c1ccc2c(c1)no[n+]2[O-] | – | > 10000 | –
NS(=O)(=O)c1ccc(CCN(CCc2ccccc2)C(=O)c2ccc3c(c2)no[n+]3[O-])cc1 | 14.9 | 831 | –
O=C(Oc1ccc2oc(=O)ccc2c1)c1ccc2c(c1)no[n+]2[O-] | 15.8 | > 10000 | –
NS(=O)(=O)c1ccc(CCN(Cc2ccc(F)cc2)C(=O)c2ccc3c(c2)no[n+]3[O-])cc1 | – | – | Activity [7]: Non-Toxic
NS(=O)(=O)c1cc(C(=O)O)c(NCc2ccco2)cc1Cl [FUROSEMIDE] | – | – | pH [5]: 7.05
